Key:
[1] = Rat plasma pharmacokinetics after 10-day vehicle/SLE and digoxin or GE; format: in vivo, Sprague-Dawley rats; details: rats; for AUC / Cmax / AUC(0-inf) / MRT inf / half-life / Cl_F_obs / Tmax: day 11 digoxin 0.5 mg/kg or GE 120 mg/kg ig; for AUC(0-inf): read-out: AUCINF_obs; for MRT inf: read-out: MRTINF_obs; for half-life: read-out: t1/2 (converted)
Experimental: This study was carried out in strict accordance with the recommendations in the Guide for the Care and Use of Laboratory Animals of the National Institutes of Health. The protocol was approved by the Committee on the Ethics of Animal Experiments of the China Pharmaceutical University. All surgery was performed under sodium pentobarbital anesthesia, and all efforts were made to minimize suffering. […] The rats were fed with standard laboratory food and water and fasted overnight but with free access to water before the test. To evaluate the effect of long-term treatment with SLE on the pharmacokinetics of ginsenosides, 24 rats were also divided into four groups (group I∼ group IV) with 6 animals each. […] On the 11th day, digoxin was administered intragastrically to rats (group I and group II) at a single dose of 0.5 mg/kg, GE was administered intragastrically to rats (group III and group IV) at a single dose of 120 mg/kg. […] Plasma was obtained by centrifugation at 5000 g for 10 min and stored at −20°C before analysis. The plasma / cell samples were extracted using a liquid–liquid extraction technique. To each tube containing 100 µL plasma, 10 µL internal standard (digoxin, 1.0 µg/mL) and 1.0 mL of n-butanol were added. The mixture was then vortex-extracted for 2 min, and centrifuged for 10 min at 10,000 g. […] The plasma concentration-time curves of ginsenosides in rats were obtained by plotting the mean plasma concentrations versus time. Pharmacokinetic parameters were calculated using the WinNonlin 6.3 program (Pharsight Inc., Mountain View, CA). The elimination half-life (t 1/2) value was calculated as 0.693/β, where β is the elimination rate constant calculated from the terminal linear portion of the log plasma concentration-time curve. The total areas under the plasma concentration- time curve from time 0 to the last quantifiable time point (AUC0-t) and from time 0 to infinity (AUC0-∞) were calculated using the log trapezoidal rule. [drawing 3] The maximum plasma concentrations (C max) for ginsenosides were obtained by visual inspection of the plasma concentration-time curve, whereas the initial drug concentration (the extrapolated concentration at zero time) of the drug after intravenous injection was calculated by back-extrapolation of the plasma concentration-time curve to the y-axis.

[2] = molecular target: human MDR1-encoded P-gp (L-MDR1 cells) (Homo sapiens, UniProt P08183); test: Uptake (intracellular concentration) of digoxin and ginsenosides in L-MDR1 cells; format: in vitro ADME
Chain of human MDR1-encoded P-gp (L-MDR1 cells) (P08183 whole entry): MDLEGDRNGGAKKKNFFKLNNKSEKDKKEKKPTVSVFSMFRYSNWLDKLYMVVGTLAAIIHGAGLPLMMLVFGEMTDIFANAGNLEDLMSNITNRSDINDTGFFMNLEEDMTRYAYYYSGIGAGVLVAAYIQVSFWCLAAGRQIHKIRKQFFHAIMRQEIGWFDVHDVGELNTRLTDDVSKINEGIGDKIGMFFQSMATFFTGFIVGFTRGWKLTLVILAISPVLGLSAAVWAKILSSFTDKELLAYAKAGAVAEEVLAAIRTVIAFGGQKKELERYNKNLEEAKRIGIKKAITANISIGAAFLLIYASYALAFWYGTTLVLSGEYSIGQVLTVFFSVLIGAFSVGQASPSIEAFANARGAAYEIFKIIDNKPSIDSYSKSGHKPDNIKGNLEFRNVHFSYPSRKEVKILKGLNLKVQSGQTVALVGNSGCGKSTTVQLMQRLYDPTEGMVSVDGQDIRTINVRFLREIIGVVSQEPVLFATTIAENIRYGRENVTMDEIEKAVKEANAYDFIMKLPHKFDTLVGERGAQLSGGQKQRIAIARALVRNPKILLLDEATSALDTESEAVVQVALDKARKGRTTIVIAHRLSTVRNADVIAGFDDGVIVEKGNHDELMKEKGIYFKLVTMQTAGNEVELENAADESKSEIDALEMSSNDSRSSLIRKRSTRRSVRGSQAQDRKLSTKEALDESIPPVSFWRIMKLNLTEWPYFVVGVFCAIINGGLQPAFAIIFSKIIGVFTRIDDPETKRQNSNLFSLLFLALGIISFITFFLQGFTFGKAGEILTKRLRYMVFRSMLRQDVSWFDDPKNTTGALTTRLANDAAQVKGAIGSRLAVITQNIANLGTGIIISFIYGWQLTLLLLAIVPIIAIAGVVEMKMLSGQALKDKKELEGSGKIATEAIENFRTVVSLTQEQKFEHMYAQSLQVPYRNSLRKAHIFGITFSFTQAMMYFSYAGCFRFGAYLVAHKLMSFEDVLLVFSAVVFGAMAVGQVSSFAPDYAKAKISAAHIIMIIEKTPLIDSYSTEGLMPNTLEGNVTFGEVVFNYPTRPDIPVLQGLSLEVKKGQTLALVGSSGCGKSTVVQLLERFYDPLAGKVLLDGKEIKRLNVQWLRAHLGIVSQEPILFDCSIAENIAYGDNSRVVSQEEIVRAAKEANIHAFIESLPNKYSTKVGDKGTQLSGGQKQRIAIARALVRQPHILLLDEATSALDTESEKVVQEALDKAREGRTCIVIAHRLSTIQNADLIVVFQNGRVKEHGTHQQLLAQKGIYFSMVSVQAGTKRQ
Experimental: LLC-PK1 cells, a cell line lacking P-gp, and the derived cell line L-MDR1, which over-express human MDR1-encoded P-gp, were grown in minimum essential medium with supplements at 37°C, 5% CO2, and 95% humidity. LLC-PK1 and L-MDR1 cells were seeded at a density of 12×10^6 cells per 150-cm^2 flask and grown for 7 days in medium 199 supplemented with 2 mM glutamine, 10% fetal bovine serum, 10 mg/500 mL of streptomycin, and 10,000 IU/500 mL of penicillin. To ensure a constant expression level of transport protein, L-MDR1 cells were grown in the presence of 640 nM vincristine. Cells were grown as monolayer on polycarbonate membrane filters (Transwell; Costar Corporation, Cambridge, MA) as outlined previously. Transepithelial resistance was measured in each well using a Millicell ERS ohmmeter (Millipore, Bedford, MA); wells registering a resistance of 200 ohms or greater, after correcting for the resistance obtained in control blank wells, were used in the transport experiments.
LLC-PK1 and L-MDR1 cells were incubated with SLE (2.0 and 10.0 µg/mL) or verapamil (10 µM) for 1.0 h, and then were washed to discard SLE or verapamil before adding 100 µg/mL of GE. The accumulation of GE lasted for 2 h, and the intracellular concentrations of ginsenosides were measured by LC/MS. All experiments were conducted in triplicate.

[3] = Rat plasma pharmacokinetics after single-dose vehicle/SLE and digoxin or GE; format: in vivo, Sprague-Dawley rats; details: rats; for half-life / AUC / Cmax / AUC(0-inf) / MRT inf / Tmax: female, Sprague-Dawley, rat, plasma, po; for half-life / AUC / Cmax / AUC(0-inf) / MRT inf / Tmax / Cl_F_obs: 2 h later digoxin 0.5 mg/kg or GE 120 mg/kg ig; for half-life: read-out: t1/2 (converted); for AUC(0-inf): read-out: AUCINF_obs; for MRT inf: read-out: MRTINF_obs; for Tmax: read-out: Tmax
Experimental: This study was carried out in strict accordance with the recommendations in the Guide for the Care and Use of Laboratory Animals of the National Institutes of Health. The protocol was approved by the Committee on the Ethics of Animal Experiments of the China Pharmaceutical University. All surgery was performed under sodium pentobarbital anesthesia, and all efforts were made to minimize suffering. Female healthy Sprague-Dawley rats (200±20 g) were purchased from the Laboratory Animal Center of Peking University Health Science Center (Beijing, PR China) and kept in an environmentally controlled breeding room for at least 3 days before experimentation. The rats were fed with standard laboratory food and water and fasted overnight but with free access to water before the test. To evaluate the effect of single treatment of SLE on the pharmacokinetics of ginsenosides, 24 rats were divided into four groups (group I ∼ group IV) averagely. […] In group II (control group): the rats received a single dose of vehicle (0.5% CMC-Na), and digoxin (0.5 mg/kg) was also given to the rats by intragastric administration. […] In group IV (control group): the rats received a single dose of vehicle (0.5% CMC-Na), and GE (120 mg/kg) was also given to the rats by gavage. […] Plasma was obtained by centrifugation at 5000 g for 10 min and stored at −20°C before analysis. The plasma / cell samples were extracted using a liquid–liquid extraction technique. To each tube containing 100 µL plasma, 10 µL internal standard (digoxin, 1.0 µg/mL) and 1.0 mL of n-butanol were added. The mixture was then vortex-extracted for 2 min, and centrifuged for 10 min at 10,000 g. […] The plasma concentration-time curves of ginsenosides in rats were obtained by plotting the mean plasma concentrations versus time. Pharmacokinetic parameters were calculated using the WinNonlin 6.3 program (Pharsight Inc., Mountain View, CA). The elimination half-life (t 1/2) value was calculated as 0.693/β, where β is the elimination rate constant calculated from the terminal linear portion of the log plasma concentration-time curve. The total areas under the plasma concentration- time curve from time 0 to the last quantifiable time point (AUC0-t) and from time 0 to infinity (AUC0-∞) were calculated using the log trapezoidal rule. [drawing 3] The maximum plasma concentrations (C max) for ginsenosides were obtained by visual inspection of the plasma concentration-time curve, whereas the initial drug concentration (the extrapolated concentration at zero time) of the drug after intravenous injection was calculated by back-extrapolation of the plasma concentration-time curve to the y-axis.

[4] = female, Sprague-Dawley, rat, plasma, po, SLE 500 mg/kg ig once a day for 10 days
[5] = female, Sprague-Dawley, rat, plasma, po, control: vehicle once a day for 10 days
[6] = SLE 500 mg/kg ig once a day for 10 days
[7] = control: vehicle once a day for 10 days
[8] = control: single vehicle (0.5% sodium CMC)
[9] = single-dose SLE 500 mg/kg vs vehicle, GE ig

AUC [1, 4] [µg·h/mL] | Cmax [1, 4] [µg/mL] | AUC(0-inf) [1, 4] [µg·h/mL] | MRT inf [1, 4] [h] | half-life [1, 4] [h] | AUC [1, 5] [µg·h/mL] | Cmax [1, 5] [µg/mL] | AUC(0-inf) [1, 5] [µg·h/mL] | MRT inf [1, 5] [h] | half-life [1, 5] [h] | Cl_F_obs [1, 6] [L/h] | Increase of intracellular concentration by SLE ([2]; 2.0 µg/mL SLE) [fold] | Increase of intracellular concentration by SLE ([2]; 10.0 µg/mL SLE) [fold] | half-life [3, 8] [h] | AUC ([3]; control: single vehicle) [µg·h/mL] | Cmax ([3]; control: single vehicle) [µg/mL] | AUC(0-inf) ([3]; control: single vehicle) [µg·h/mL] | MRT inf ([3]; control: single vehicle) [h] | Tmax ([3]; control: single vehicle) [h] | AUC ([3]; single SLE 500 mg/kg ig) [µg·h/mL] | SMILES | also measured
7.64 ± 2.69 | 0.265 ± 0.0494 | 11.7 ± 8.56 | 26.3 ± 90.6 | 18 ± 75.9 | 6.57 ± 1.82 | 0.262 ± 0.104 | 7.46 ± 2.34 | 22.4 ± 9.98 | 20.8 ± 9.64 | 0.0125 ± 0.0084 | 2.9 | 4.3 | 75.4 ± 42.7 | 5.35 ± 1.41 | 0.237 ± 0.079 | 7.41 ± 2.18 | 21.6 ± 49 | 7.5 ± 1 | 7.96 ± 2 | CC(C)=CCC[C@](C)(O[C@@H]1O[C@H](CO)[C@@H](O)[C@H](O)[C@H]1O)[C@H]1CC[C@]2(C)[C@@H]1[C@H](O)C[C@@H]1[C@@]3(C)CC[C@H](O[C@@H]4O[C@H](CO)[C@@H](O)[C@H](O)[C@H]4O[C@@H]4O[C@H](CO)[C@@H](O)[C@H](O)[C@H]4O)C(C)(C)[C@@H]3CC[C@]12C [Rd, ginsenoside Rd] | Tmax [1, 6]: 8.00 ± 2.45 h; Increase of AUC (AUC0-∞) by 10 continuous days administration of SLE ([1]; SLE 500 mg/kg x 10 days vs vehicle, GE ig on day 11): 1.60 fold; Tmax [1, 7]: 8.00 ± 2.45 h; Cmax ([3]; single SLE 500 mg/kg ig): 0.227 ± 0.0578 µg/mL; AUC(0-inf) ([3]; single SLE 500 mg/kg ig): 9.04 ± 2.2 µg·h/mL; MRT inf ([3]; single SLE 500 mg/kg ig): 25.1 ± 7.45 h; Tmax ([3]; single SLE 500 mg/kg ig): 7.5 ± 1 h; half-life ([3]; single SLE 500 mg/kg ig): 21.8 ± 6.78 h; Cl_F_obs ([3]; control: single vehicle): 0.014 ± 0.003 L/h; Cl_F_obs ([3]; single SLE 500 mg/kg ig): 0.011 ± 0.003 L/h; Effect of SLE treatment on Cmax [3, 9]: not dramatically changed; Increase of AUC (AUC0-∞) by coadministration of SLE [3, 9]: 1.86 fold
0.123 ± 0.0528 | 0.0229 ± 0.0137 | 0.127 ± 0.0521 | 4.78 ± 0.91 | 2.19 ± 0.87 | 0.0683 ± 0.026 | 0.0118 ± 0.00422 | 0.0761 ± 0.03 | 5.65 ± 2.85 | 2.99 ± 2.32 | 4.49 ± 1.75 | 2.7 | 3.6 | 3.08 ± 1.23 | 0.0618 ± 0.0134 | 0.015 ± 0.00507 | 0.0675 ± 0.0134 | 5.15 ± 1.09 | 1.28 ± 0.36 | 0.0844 ± 0.00725 | C[C@H]1O[C@@H](O[C@H]2[C@@H](O)C[C@H](O[C@H]3[C@@H](O)C[C@H](O[C@H]4CC[C@@]5(C)[C@H](CC[C@@H]6[C@@H]5C[C@@H](O)[C@]5(C)[C@@H](C7=CC(=O)OC7)CC[C@]65O)C4)O[C@@H]3C)O[C@@H]2C)C[C@H](O)[C@@H]1O [Digoxin, digoxin, reference compound] | Tmax ([1]; female, Sprague-Dawley, rat, plasma, po, SLE 500 mg/kg ig once a day for 10 days, read-out: Tmax): 3.28 ± 1.73 h; Tmax ([1]; female, Sprague-Dawley, rat, plasma, po, control: vehicle once a day for 10 days, read-out: Tmax): 2.33 ± 1.03 h; Increase of AUC0-τ by 10 continuous days administration of SLE ([1]; SLE 500 mg/kg x 10 days vs vehicle, digoxin 0.5 mg/kg ig on day 11, P<0.05): about 2 fold; Cl_F_obs [1, 7]: 7.48 ± 3.09 L/h; Enhancement of uptake level by verapamil ([2]; 10 µM verapamil, P<0.05): 3.2 fold; Cmax ([3]; single SLE 500 mg/kg ig): 0.0175 ± 0.00226 µg/mL; AUC(0-inf) ([3]; single SLE 500 mg/kg ig): 0.091 ± 0.00839 µg·h/mL; MRT inf ([3]; single SLE 500 mg/kg ig): 5.06 ± 0.42 h; Tmax ([3]; single SLE 500 mg/kg ig): 1.58 ± 0.38 h; half-life ([3]; single SLE 500 mg/kg ig): 2.98 ± 0.36 h; Cl_F_obs ([3]; control: single vehicle): 7.66 ± 1.53 L/h; Cl_F_obs ([3]; single SLE 500 mg/kg ig): 5.53 ± 0.48 L/h
